Test results taken from EPA's ToxRefDB 2.

Tests used:
rat [1] = details: Developmental neurotoxicity study; sprague dawley; Oral; Gavage/Intubation; dose end: 90 PND; group: cannot be grouped; developmental / developmental landmark / eye opening / eye opening + reproductive / offspring survival early / dead fetuses / dead fetuses…
rabbit [2] = details: Prenatal developmental toxicity study, new zealand white, Dermal, Topical, dose end: 19 GD
rat [3] = details: Subchronic oral toxicity in rodents, sprague dawley, Gavage/Intubation, dose end: 13 week, group: systemic
rat [4] = details: Prenatal developmental toxicity study, wistar, Dermal, Topical, dose end: 16 GD
rat [5] = details: Subchronic oral toxicity in rodents, sprague dawley, Gavage/Intubation, dose end: 12 week, group: systemic, systemic / clinical chemistry / alkaline phosphatase (alp/alk) / alkaline phosphatase (alp/alk) + systemic / clinical chemistry / albumin / …
mouse [6] = details: Sub-acute repeat dose toxicity, other, Oral, Gavage/Intubation, dose end: 21 day, group: systemic
rat [7] = details: Developmental neurotoxicity study, sprague dawley, Oral, Gavage/Intubation, dose end: 97 PND, group: cannot be grouped
rat [8] = details: Prenatal developmental toxicity study, sprague dawley, Injection, Subcutaneous, dose end: 8 GD
rat [9] = details: Prenatal developmental toxicity study; wistar; Oral; Gavage/Intubation; dose end: 15 GD; group: developmental; developmental / developmental malformation / bone / incomplete ossification + developmental / developmental malformation / bone / …
rat [10] = details: Sub-acute repeat dose toxicity, sprague dawley, Oral, Gavage/Intubation, dose end: 28 day, group: systemic
rabbit [11] = details: Sub-acute repeat dose toxicity; Oral; Gavage/Intubation; dose end: 5 day; group: systemic; systemic / in life observation / body weight / body weight + systemic / in life observation / clinical signs / [other] + systemic / in life …
rat [12] = details: Sub-acute repeat dose toxicity; sprague dawley; Oral; Feed; dose end: 15 day; group: systemic; systemic / in life observation / body weight / body weight + systemic / in life observation / food consumption / food consumption
dog [13] = details: Chronic toxicity, beagle, Oral, Gavage/Intubation, dose end: 363 day, group: systemic
dog [14] = details: Sub-acute repeat dose toxicity; beagle; Oral; Gavage/Intubation; dose end: 30 day; group: systemic; systemic / in life observation / body weight / body weight gain + systemic / organ weight / liver / absolute + systemic / organ weight / …
rat [15] = details: Prenatal developmental toxicity study, sprague dawley, Oral, Gavage/Intubation, dose end: 18 GD
rat [16] = details: Chronic toxicity; sprague dawley; Oral; Gavage/Intubation; dose end: 181 day; group: systemic; systemic / in life observation / body weight / body weight gain + systemic / hematology / reticulocyte / reticulocyte + systemic / pathology…
mouse [17] = details: Sub-acute repeat dose toxicity; Oral; Gavage/Intubation; dose end: 29 day; group: systemic; systemic / clinical chemistry / glucose / glucose + systemic / clinical chemistry / urea nitrogen / urea + systemic / hematology / leukocyte…
primate = details: Sub-acute repeat dose toxicity; Oral; Gavage/Intubation; dose end: 6 day; group: systemic; systemic / in life observation / clinical signs / arrhythmia + systemic / in life observation / clinical signs / emesis + systemic / in life…
mouse [18] = details: Subchronic oral toxicity in rodents, Gavage/Intubation, dose end: 91 day, group: systemic, systemic / in life observation / body weight / body weight gain + systemic / organ weight / heart / absolute + systemic / organ weight / …
[19] = group: developmental, systemic / in life observation / body weight / fetal weight
[20] = group: maternal, systemic / in life observation / body weight / body weight + systemic / in life observation / body weight / body weight gain + systemic / in…
[21] = systemic / clinical chemistry / alkaline phosphatase (alp/alk) / alkaline phosphatase (alp/alk) + systemic / hematology / erythrocyte (rbc) …
[22] = group: developmental, developmental / developmental malformation / bone / supernumerary + systemic / in life observation / body weight / fetal weight
[23] = group: maternal, systemic / in life observation / clinical signs / [other] + systemic / in life observation / clinical signs / erythema + systemic / in life …
[24] = systemic / clinical chemistry / alkaline phosphatase (alp/alk) / alkaline phosphatase (alp/alk) + systemic / pathology microscopic / bone / …
[25] = systemic / hematology / hematocrit (hct) / hematocrit (hct) + systemic / hematology / hemoglobin (hgb) / hemoglobin (hgb)
[26] = systemic / in life observation / body weight / offspring (pup) weight gain
[27] = group: developmental, developmental / developmental malformation / general / crown-rump length + systemic / in life observation / body weight / fetal weight
[28] = group: maternal, reproductive / reproductive performance / resorptions / resorptions + systemic / in life observation / body weight / body weight + systemic…
[29] = systemic / in life observation / body weight / body weight gain + systemic / in life observation / food consumption / food consumption
[30] = systemic / in life observation / body weight / body weight gain + systemic / in life observation / food consumption / food consumption + …
[31] = systemic / in life observation / body weight / body weight gain + systemic / organ weight / liver / absolute + systemic / pathology …
[32] = systemic / organ weight / kidney / absolute + systemic / clinical chemistry / alkaline phosphatase (alp/alk) / alkaline phosphatase (alp/alk…
[33] = group: developmental, developmental / developmental malformation / bone / full supernumerary
[34] = group: maternal, systemic / in life observation / body weight / body weight + systemic / in life observation / food consumption / food consumption

Which LEL (rat [1]) does the source give for CC1=C(/C=C/C(C)=C/C=C/C(C)=C/C(=O)O)C(C)(C)CCC1 [trans-Retinoic acid] here?
Its LEL is 2.5 mg/kg/day.

And the LOAEL (rat [1])?
The LOAEL was greater than 2.5 mg/kg/day.

What about the NEL (rat [1]) of the same compound?
Its NEL is less than 2.5 mg/kg/day.

What about the NOAEL (rat [1]) of the same compound?
Its NOAEL is no less than 2.5 mg/kg/day.

What about the LEL (rabbit [2]; [19]) of the same compound?
Its LEL is 0.5 mg/kg/day.

What about the LOAEL (rabbit [2]; [19]) of the same compound?
Its LOAEL is greater than 0.5 mg/kg/day.

And the NEL (rabbit [2]; [19])?
Its NEL is 0.05 mg/kg/day.

And the NOAEL (rabbit [2]; [19])?
The NOAEL was no less than 0.5 mg/kg/day.

What about the LEL (rabbit [2]; [20]) of the same compound?
The LEL was 0.05 mg/kg/day.

And the LOAEL (rabbit [2]; [20])?
The LOAEL was greater than 0.5 mg/kg/day.

And the NEL (rabbit [2]; [20])?
Its NEL is less than 0.05 mg/kg/day.

And the NOAEL (rabbit [2]; [20])?
The NOAEL was no less than 0.5 mg/kg/day.

What about the LOAEL (rat [3]; [21]) of the same compound?
The LOAEL was greater than 50 mg/kg/day.

And the NEL (rat [3]; [21])?
The NEL was 1 mg/kg/day.

And the NOAEL (rat [3]; [21])?
The NOAEL was no less than 50 mg/kg/day.

What about the LEL (rat [3]; systemic / clinical chemistry / alkaline phosphatase (alp/alk) / alkaline phosphatase (alp/alk) + systemic / pathology microscopic / lymph …) of the same compound?
Its LEL is 4 mg/kg/day.

What about the LEL (rat [4]; group: developmental, developmental / developmental malformation / bone / supernumerary) of the same compound?
The LEL was 2.5 mg/kg/day.

And the LOAEL (rat [4]; [22])?
The LOAEL was greater than 20 mg/kg/day.

What about the NEL (rat [4]; [22]) of the same compound?
Its NEL is 1 mg/kg/day.

What about the NOAEL (rat [4]; [22]) of the same compound?
The NOAEL was no less than 20 mg/kg/day.

And the LOAEL (rat [4]; [20])?
Its LOAEL is greater than 20 mg/kg/day.

What about the NOAEL (rat [4]; [20]) of the same compound?
The NOAEL was no less than 20 mg/kg/day.

What about the LEL (rat [4]; [23]) of the same compound?
Its LEL is 1 mg/kg/day.

What about the NEL (rat [4]; [23]) of the same compound?
Its NEL is less than 1 mg/kg/day.

And the LEL (rat [5])?
Its LEL is 0.5 mg/kg/day.

And the LOAEL (rat [5])?
Its LOAEL is greater than 5 mg/kg/day.

And the NEL (rat [5])?
The NEL was less than 0.5 mg/kg/day.

What about the NOAEL (rat [5]) of the same compound?
Its NOAEL is no less than 5 mg/kg/day.

And the LOAEL (mouse [6]; [24])?
The LOAEL was greater than 100 mg/kg/day.

What about the NOAEL (mouse [6]; [24]) of the same compound?
Its NOAEL is no less than 100 mg/kg/day.

And the LEL (mouse [6]; [25])?
Its LEL is 3 mg/kg/day.

What about the NEL (mouse [6]; [25]) of the same compound?
Its NEL is less than 3 mg/kg/day.

What about the LOAEL (rat [7]; [26]) of the same compound?
The LOAEL was greater than 6 mg/kg/day.

And the NOAEL (rat [7]; [26])?
Its NOAEL is no less than 6 mg/kg/day.

What about the LEL (rat [7]; systemic / in life observation / clinical signs / impaired foot spread) of the same compound?
The LEL was 2.5 mg/kg/day.

What about the LEL (rat [8]; [27]) of the same compound?
The LEL was 48.1 mg/kg/day.

And the LOAEL (rat [8]; [27])?
Its LOAEL is greater than 144 mg/kg/day.

And the NEL (rat [8]; [27])?
The NEL was 24 mg/kg/day.

What about the NOAEL (rat [8]; [27]) of the same compound?
Its NOAEL is no less than 144 mg/kg/day.

What about the LOAEL (rat [8]; [28]) of the same compound?
Its LOAEL is greater than 144 mg/kg/day.

What about the NEL (rat [8]; [28]) of the same compound?
The NEL was 48.1 mg/kg/day.

What about the NOAEL (rat [8]; [28]) of the same compound?
The NOAEL was no less than 144 mg/kg/day.

And the LEL (rat [8]; group: maternal, systemic / in life observation / body weight / body weight + systemic / in life observation / clinical signs / abnormal gait + systemic / in…)?
The LEL was 96.1 mg/kg/day.

What about the LEL (rat [9]) of the same compound?
Its LEL is 5 mg/kg/day.

And the LOAEL (rat [9])?
Its LOAEL is greater than 10 mg/kg/day.

And the NEL (rat [9])?
Its NEL is 2.5 mg/kg/day.

What about the NOAEL (rat [9]) of the same compound?
Its NOAEL is no less than 10 mg/kg/day.

What does the source list for CN1N=C2CCN(C(=O)[C@@H](COCc3ccccc3)NC(=O)C(C)(C)N)C[C@@]2(Cc2ccccc2)C1=O [Capromorelin]?
LEL (rat [10]; [29]): 1 mg/kg/day; NEL (rat [10]; [29]): < 1 mg/kg/day; LOAEL (rat [10]; [30]): > 75 mg/kg/day; NOAEL (rat [10]; [30]): ≥ 75 mg/kg/day; LOAEL (rabbit [11]): > 150 mg/kg/day; NEL (rabbit [11]): 50 mg/kg/day; NOAEL (rabbit [11]): ≥ 150 mg/kg/day; LEL (rat [12]): 1200 mg/kg/day; LOAEL (rat [12]): > 1200 mg/kg/day; NOAEL (rat [12]): ≥ 1200 mg/kg/day; LEL (dog [13]; [31]): 7 mg/kg/day; NEL (dog [13]; [31]): < 7 mg/kg/day; LOAEL (dog [13]; [32]): > 40 mg/kg/day; NOAEL (dog [13]; [32]): ≥ 40 mg/kg/day; LEL (dog [14]): 40 mg/kg/day; LOAEL (dog [14]): > 40 mg/kg/day; NEL (dog [14]): 7 mg/kg/day; NOAEL (dog [14]): ≥ 40 mg/kg/day; LOAEL (rat [15]; [33]): > 75 mg/kg/day; NEL (rat [15]; [33]): < 1 mg/kg/day; NOAEL (rat [15]; [33]): ≥ 75 mg/kg/day; LOAEL (rat [15]; [34]): > 75 mg/kg/day; NOAEL (rat [15]; [34]): ≥ 75 mg/kg/day; LEL (rat [16]): 1 mg/kg/day; LOAEL (rat [16]): > 75 mg/kg/day; NEL (rat [16]): < 1 mg/kg/day; NOAEL (rat [16]): ≥ 75 mg/kg/day; LEL (mouse [17]): 3 mg/kg/day; LOAEL (mouse [17]): > 300 mg/kg/day; NEL (mouse [17]): < 3 mg/kg/day; NOAEL (mouse [17]): ≥ 300 mg/kg/day; LEL (primate): 1 mg/kg/day; LOAEL (primate): > 3 mg/kg/day; NEL (primate): < 1 mg/kg/day; NOAEL (primate): ≥ 3 mg/kg/day; LEL (mouse [18]): 30 mg/kg/day; LOAEL (mouse [18]): > 300 mg/kg/day; NEL (mouse [18]): < 30 mg/kg/day; NOAEL (mouse [18]): ≥ 300 mg/kg/day
